Results published in ChEMBL document CHEMBL1201862, “PubChem BioAssay data set” (2004).
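Step 1: Grow cells in 96-well plates. Step 2: Expose to compound for 48 hours at 5 concentrations. Step 3: Interpolate endpoints linearly; if unreached, use highest concentration. The concentration for 50% growth inhibition is given as GI50.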 Active and inactive are the calls of the source. No stated cut-off is given here; in the data, active = GI50 up to about 1.1 µM and inactive = higher.

What was measured:
Test in all cases: DTP human tumour cell line panel, 48 h
SN12C = tested on: SN12C
SK-MEL-28 = tested on: SK-MEL-28
HT-29 = tested on: HT-29
SK-MEL-5 = tested on: SK-MEL-5
OVCAR-3 = tested on: OVCAR-3
OVCAR-5 = tested on: OVCAR-5
Hs-578T = tested on: Hs-578T
OVCAR-4 = tested on: OVCAR-4
M14 = tested on: M14
UO-31 = tested on: UO-31
SNB-75 = tested on: SNB-75
NCI-H23 = tested on: NCI-H23
Malme-3M = tested on: Malme-3M
PC-3 = tested on: PC-3
T47D = tested on: T47D
MDA-MB-231 = tested on: MDA-MB-231
UACC-62 = tested on: UACC-62
SNB-19 = tested on: SNB-19
SF-268 = tested on: SF-268
UACC-257 = tested on: UACC-257
SF-295 = tested on: SF-295
SR = tested on: SR
MOLT-4 = tested on: MOLT-4
786-0 = tested on: 786-0
CAKI-1 = tested on: CAKI-1
MDA-MB-435 = tested on: MDA-MB-435
MCF7 = tested on: MCF7
COLO 205 = tested on: COLO 205
HL-60 = tested on: HL-60
NCI/ADR-RES = tested on: NCI/ADR-RES
HCT-116 = tested on: HCT-116
MDA-N = tested on: MDA-N
OVCAR-8 = tested on: OVCAR-8
HCT-15 = tested on: HCT-15
HCC 2998 = tested on: HCC 2998
LOX IMVI = tested on: LOX IMVI
NCI-H226 = tested on: NCI-H226
KM12 = tested on: KM12
SK-OV-3 = tested on: SK-OV-3
EKVX = tested on: EKVX
RPMI-8226 = tested on: RPMI-8226
NCI-H460 = tested on: NCI-H460
IGROV-1 = tested on: IGROV-1
NCI-H522 = tested on: NCI-H522
CCRF-CEM = tested on: CCRF-CEM
A549 = tested on: A549
DU-145 = tested on: DU-145
U-251 = tested on: U-251
ACHN = tested on: ACHN
SF-539 = tested on: SF-539
TK-10 = tested on: TK-10
K562 = tested on: K562
HOP-92 = tested on: HOP-92
RXF 393 = tested on: RXF 393
SW-620 = tested on: SW-620
BT-549 = tested on: BT-549
SK-MEL-2 = tested on: SK-MEL-2
HOP-62 = tested on: HOP-62
A498 = tested on: A498

Cc1ccc2c(O)cc(-c3ccccc3)nc2n1
GI50 (SN12C): 0.416 µM (active) | GI50 (SK-MEL-28): 0.181 µM (active) | GI50 (HT-29): 0.0378 µM (active) | GI50 (SK-MEL-5): 0.0512 µM (active) | GI50 (OVCAR-3): 0.0346 µM (active) | GI50 (OVCAR-5): 2.56 µM (inactive) | GI50 (Hs-578T): 0.091 µM (active) | GI50 (OVCAR-4): 5.24 µM (inactive) | GI50 (M14): 0.0643 µM (active) | GI50 (UO-31): 0.593 µM (active) | GI50 (SNB-75): 0.0664 µM (active) | GI50 (NCI-H23): 0.313 µM (active) | GI50 (Malme-3M): 0.0867 µM (active) | GI50 (PC-3): 0.0519 µM (active) | GI50 (T47D): > 100 µM (inactive) | GI50 (MDA-MB-231): 0.467 µM (active) | GI50 (UACC-62): 0.0521 µM (active) | GI50 (SNB-19): 0.309 µM (active) | GI50 (SF-268): 1.56 µM (inactive) | GI50 (UACC-257): 0.285 µM (active) | GI50 (SF-295): 0.0585 µM (active) | GI50 (SR): < 0.0306 µM (active) | GI50 (MOLT-4): 0.116 µM (active) | GI50 (786-0): 0.222 µM (active) | GI50 (CAKI-1): 0.0564 µM (active) | GI50 (MDA-MB-435): < 0.01 µM (active) | GI50 (MCF7): 0.0509 µM (active) | GI50 (COLO 205): 0.0378 µM (active) | GI50 (HL-60): 0.0255 µM (active) | GI50 (NCI/ADR-RES): 0.0367 µM (active) | GI50 (HCT-116): 0.0507 µM (active) | GI50 (MDA-N): 0.0106 µM (active) | GI50 (OVCAR-8): 0.217 µM (active) | GI50 (HCT-15): 0.0352 µM | GI50 (HCC 2998): 0.157 µM (active) | GI50 (LOX IMVI): 0.116 µM (active) | GI50 (NCI-H226): 0.472 µM (active) | GI50 (KM12): 0.0304 µM (active) | GI50 (SK-OV-3): 0.105 µM (active) | GI50 (EKVX): 1.74 µM (inactive) | GI50 (RPMI-8226): 0.115 µM (active) | GI50 (NCI-H460): 0.0574 µM (active) | GI50 (IGROV-1): 0.11 µM (active) | GI50 (NCI-H522): 0.0532 µM (active) | GI50 (CCRF-CEM): 0.0887 µM (active) | GI50 (A549): 0.221 µM (active) | GI50 (DU-145): 0.274 µM (active) | GI50 (U-251): 0.0875 µM (active) | GI50 (ACHN): 0.845 µM (active) | GI50 (SF-539): 0.191 µM (active) | GI50 (TK-10): 0.12 µM (active) | GI50 (K562): 0.0366 µM (active) | GI50 (HOP-92): 1.44 µM (inactive) | GI50 (RXF 393): 0.127 µM (active) | GI50 (SW-620): 0.0389 µM (active) | GI50 (BT-549): 0.122 µM (active) | GI50 (SK-MEL-2): 0.103 µM (active) | GI50 (HOP-62): 0.366 µM (active)

Oc1ccccc1C1C=C(c2ccccc2)NC(N2CCCCC2)=C1c1nc2ccccc2[nH]1 (centres undefined)
GI50 (SN12C): 16.1 µM (inactive) | GI50 (SK-MEL-28): 15.9 µM (inactive) | GI50 (HT-29): 15.2 µM (inactive) | GI50 (SK-MEL-5): 13.9 µM (inactive) | GI50 (OVCAR-3): 14.6 µM (inactive) | GI50 (OVCAR-5): 17.9 µM (inactive) | GI50 (Hs-578T): 13.4 µM (inactive) | GI50 (OVCAR-4): 13.3 µM (inactive) | GI50 (M14): 13 µM (inactive) | GI50 (UO-31): 11.1 µM (inactive) | GI50 (SNB-75): 4.57 µM (inactive) | GI50 (NCI-H23): 15.3 µM (inactive) | GI50 (Malme-3M): 15.8 µM (inactive) | GI50 (PC-3): 11.8 µM (inactive) | GI50 (T47D): 18.9 µM (inactive) | GI50 (MDA-MB-231): 11.9 µM (inactive) | GI50 (UACC-62): 15.8 µM (inactive) | GI50 (SNB-19): 15 µM (inactive) | GI50 (SF-268): 13.2 µM (inactive) | GI50 (UACC-257): 16 µM (inactive) | GI50 (SF-295): 15.5 µM (inactive) | GI50 (SR): 12.4 µM (inactive) | GI50 (MOLT-4): 13.7 µM (inactive) | GI50 (786-0): 12.7 µM (inactive) | GI50 (MDA-MB-435): 15.6 µM (inactive) | GI50 (MCF7): 12.1 µM (inactive) | GI50 (COLO 205): 2.19 µM (inactive) | GI50 (HL-60): 14.2 µM (inactive) | GI50 (NCI/ADR-RES): 15.8 µM (inactive) | GI50 (HCT-116): 11.7 µM (inactive) | GI50 (MDA-N): 13.5 µM (inactive) | GI50 (OVCAR-8): 15.9 µM (inactive) | GI50 (HCT-15): 18.2 µM | GI50 (HCC 2998): 3.08 µM (inactive) | GI50 (LOX IMVI): 17 µM (inactive) | GI50 (NCI-H226): 16.7 µM (inactive) | GI50 (KM12): 16.6 µM (inactive) | GI50 (SK-OV-3): 13.5 µM (inactive) | GI50 (EKVX): 6.11 µM (inactive) | GI50 (RPMI-8226): 9.57 µM (inactive) | GI50 (NCI-H460): 14.3 µM (inactive) | GI50 (IGROV-1): 14.6 µM (inactive) | GI50 (NCI-H522): 14 µM (inactive) | GI50 (CCRF-CEM): 17.1 µM (inactive) | GI50 (A549): 15.7 µM (inactive) | GI50 (DU-145): 24.2 µM (inactive) | GI50 (U-251): 15.1 µM (inactive) | GI50 (ACHN): 18.2 µM (inactive) | GI50 (SF-539): 15.9 µM (inactive) | GI50 (TK-10): 19.9 µM (inactive) | GI50 (K562): 8.05 µM (inactive) | GI50 (HOP-92): 13.7 µM (inactive) | GI50 (RXF 393): 11.4 µM (inactive) | GI50 (SW-620): 16.3 µM (inactive) | GI50 (BT-549): 15.1 µM (inactive) | GI50 (HOP-62): 14.1 µM (inactive)

CCOC(=O)/C(C(N)=O)=C(O)/C(O)=C/C(=O)c1ccc(Cl)cc1
GI50 (SN12C): 16.5 µM (inactive) | GI50 (SK-MEL-28): 24.8 µM (inactive) | GI50 (HT-29): 21.8 µM (inactive) | GI50 (SK-MEL-5): 19.9 µM (inactive) | GI50 (OVCAR-3): 21.9 µM (inactive) | GI50 (OVCAR-5): 23.5 µM (inactive) | GI50 (Hs-578T): 42.1 µM (inactive) | GI50 (OVCAR-4): 34.4 µM (inactive) | GI50 (M14): 21.2 µM (inactive) | GI50 (A498): > 100 µM (inactive) | GI50 (UO-31): 18.6 µM (inactive) | GI50 (SNB-75): 12.8 µM (inactive) | GI50 (NCI-H23): 18.3 µM (inactive) | GI50 (Malme-3M): 17.9 µM (inactive) | GI50 (PC-3): 19.1 µM (inactive) | GI50 (T47D): 18.6 µM (inactive) | GI50 (MDA-MB-231): 17.3 µM (inactive) | GI50 (UACC-62): 20.6 µM (inactive) | GI50 (SNB-19): 33.3 µM (inactive) | GI50 (SF-268): 20.6 µM (inactive) | GI50 (UACC-257): 16 µM (inactive) | GI50 (SF-295): 29.2 µM (inactive) | GI50 (SR): 21.7 µM (inactive) | GI50 (MOLT-4): 20.1 µM (inactive) | GI50 (786-0): 17.2 µM (inactive) | GI50 (CAKI-1): 24.1 µM (inactive) | GI50 (MDA-MB-435): 23.1 µM (inactive) | GI50 (MCF7): 23.8 µM (inactive) | GI50 (COLO 205): 17.8 µM (inactive) | GI50 (NCI/ADR-RES): 21.4 µM (inactive) | GI50 (HCT-116): 14.1 µM (inactive) | GI50 (MDA-N): 14.8 µM (inactive) | GI50 (OVCAR-8): 17.7 µM (inactive) | GI50 (HCT-15): 17.7 µM | GI50 (LOX IMVI): 16.3 µM (inactive) | GI50 (NCI-H226): 23.2 µM (inactive) | GI50 (KM12): 17.3 µM (inactive) | GI50 (SK-OV-3): 20.6 µM (inactive) | GI50 (EKVX): 25.9 µM (inactive) | GI50 (RPMI-8226): 19.8 µM (inactive) | GI50 (NCI-H460): 16 µM (inactive) | GI50 (IGROV-1): 18 µM (inactive) | GI50 (NCI-H522): 16.2 µM (inactive) | GI50 (CCRF-CEM): 4.53 µM (inactive) | GI50 (A549): 32.4 µM (inactive) | GI50 (DU-145): 14.8 µM (inactive) | GI50 (U-251): 15.6 µM (inactive) | GI50 (ACHN): 20 µM (inactive) | GI50 (TK-10): 8.63 µM (inactive) | GI50 (HOP-92): 21.8 µM (inactive) | GI50 (RXF 393): 15.9 µM (inactive) | GI50 (SW-620): 20.5 µM (inactive) | GI50 (BT-549): 18 µM (inactive) | GI50 (SK-MEL-2): 18.5 µM (inactive) | GI50 (HOP-62): 21.9 µM (inactive)
